Results on eight compounds are retold here after PMC5298231, “The Malaria Parasite's Lactate Transporter PfFNT Is the Target of Antiplasmodial Compounds Identified in Whole Cell Phenotypic Screens” (PLoS Pathogens, 2017).

Where two headings read alike, the source gives them in different places. Peptide text beside a SMILES is read from it.

The assay relates to erythrocytes infected with 3D7 trophozoites. The assay is classed as cell-based, Plasmodium falciparum.

With `CC(C)C[C@H](NC(=O)CNC(=O)[C@H](CC(=O)O)NC(=O)[C@@H](N)CO)C(=O)N[C@@H](C)C(=O)O` [SDGLA] (H-SDGLA-OH), the “Ratio of metabolite abundance, Exp1_1hr” value (sheet Ratio, Exp1, 1hr) worked out at 0.8703. For the same compound, under “sheet Ratio, Exp1, 3hr”, the “Ratio of metabolite abundance, Exp1_3hr” value was determined as 0.6348. The “Ratio of metabolite abundance, Exp1_6hr” value (sheet Ratio, Exp1, 6hr) amounted to 0.4701. In addition, where the note is “sheet Ratio, Exp2, 1hr”, the “Ratio of metabolite abundance, Exp2_1hr” value turned out to be 0.9687. The “Ratio of metabolite abundance, Exp2_3hr” value (sheet Ratio, Exp2, 3hr) stood at 0.9448. Further, the “Ratio of metabolite abundance, Exp2_6hr” value (sheet Ratio, Exp2, 6hr) was 0.8041. Further, for the setting “sheet Ratio, Exp3, 1hr”, the “Ratio of metabolite abundance, Exp3_1hr” value is on record as 0.872. In addition, for the setting “sheet Ratio, Exp3, 3hr”, the “Ratio of metabolite abundance, Exp3_3hr” value came out at 0.7497. Besides, for the setting “sheet Ratio, Exp3, 6hr”, the “Ratio of metabolite abundance, Exp3_6hr” value is recorded as 0.5099.

As for `N[C@@H](CO)C(=O)N[C@@H](Cc1ccccc1)C(=O)NCC(=O)N[C@@H](CC(=O)O)C(=O)O` [SFGD] (H-SFGD-OH), under “sheet Ratio, Exp1, 1hr”, the “Ratio of metabolite abundance, Exp1_1hr” value was 0.9984. Further, under “sheet Ratio, Exp1, 3hr”, the “Ratio of metabolite abundance, Exp1_3hr” value turned out to be 0.657. The “Ratio of metabolite abundance, Exp1_6hr” value (sheet Ratio, Exp1, 6hr) amounted to 0.8343. Further, the “Ratio of metabolite abundance, Exp2_1hr” value (sheet Ratio, Exp2, 1hr) amounted to 0.9574. Besides, the “Ratio of metabolite abundance, Exp2_3hr” value (sheet Ratio, Exp2, 3hr) turned out to be 0.8881. Besides, where the note is “sheet Ratio, Exp2, 6hr”, the “Ratio of metabolite abundance, Exp2_6hr” value amounted to 0.8874. The “Ratio of metabolite abundance, Exp3_1hr” value (sheet Ratio, Exp3, 1hr) is reported as 0.972. For the setting “sheet Ratio, Exp3, 3hr”, the “Ratio of metabolite abundance, Exp3_3hr” value is 0.9269. Also, the “Ratio of metabolite abundance, Exp3_6hr” value (sheet Ratio, Exp3, 6hr) is 0.9926.

Regarding `O=C(COP(=O)(O)O)[C@@H](O)[C@H](O)[C@H](O)[C@H](O)COP(=O)(O)O` [Sedoheptoluse bisphosphate], the “Ratio of metabolite abundance, Exp1_1hr” value (sheet Ratio, Exp1, 1hr) is 2.263. Further, the “Ratio of metabolite abundance, Exp1_3hr” value (sheet Ratio, Exp1, 3hr) turned out to be 0.7031. Under “sheet Ratio, Exp1, 6hr”, the “Ratio of metabolite abundance, Exp1_6hr” value is reported as 0.6514. The “Ratio of metabolite abundance, Exp2_1hr” value (sheet Ratio, Exp2, 1hr) was 1.522. Besides, for the setting “sheet Ratio, Exp2, 3hr”, the “Ratio of metabolite abundance, Exp2_3hr” value turned out to be 1.277. Further, for the setting “sheet Ratio, Exp2, 6hr”, the “Ratio of metabolite abundance, Exp2_6hr” value was 0.7611. Further, under “sheet Ratio, Exp3, 1hr”, the “Ratio of metabolite abundance, Exp3_1hr” value amounted to 1.031. For the same compound, where the note is “sheet Ratio, Exp3, 3hr”, the “Ratio of metabolite abundance, Exp3_3hr” value was found to be 0.8186. For the same compound, the “Ratio of metabolite abundance, Exp3_6hr” value (sheet Ratio, Exp3, 6hr) was 0.6336.

For `O=CCCC(=O)O` [Succinate semialdehyde], the “Ratio of metabolite abundance, Exp1_1hr” value (sheet Ratio, Exp1, 1hr) is recorded as 0.6229. Besides, the “Ratio of metabolite abundance, Exp1_3hr” value (sheet Ratio, Exp1, 3hr) was determined as 0.6245. The “Ratio of metabolite abundance, Exp1_6hr” value (sheet Ratio, Exp1, 6hr) stood at 0.614. For the same compound, under “sheet Ratio, Exp2, 1hr”, the “Ratio of metabolite abundance, Exp2_1hr” value came out at 0.9462. Further, the “Ratio of metabolite abundance, Exp2_3hr” value (sheet Ratio, Exp2, 3hr) is 0.5836. Also, the “Ratio of metabolite abundance, Exp2_6hr” value (sheet Ratio, Exp2, 6hr) worked out at 0.7757. For the same compound, the “Ratio of metabolite abundance, Exp3_1hr” value (sheet Ratio, Exp3, 1hr) was found to be 0.7696. Moreover, the “Ratio of metabolite abundance, Exp3_3hr” value (sheet Ratio, Exp3, 3hr) amounted to 0.6244. The “Ratio of metabolite abundance, Exp3_6hr” value (sheet Ratio, Exp3, 6hr) turned out to be 0.8444.

For the compound `O=C(O)CCC(=O)O` [Succinate], the “Log2 Exp1_1hr” value was found to be 0.7494, the “Log2 Exp1_3hr” value is recorded as -0.1278, the “Log2 Exp1_6hr” value is reported as -0.06195 and the “Log2 Exp2_1hr” value is given as 0.5818. The “Log2 Exp2_3hr” value was -0.0254, the “Log2 Exp2_6hr” value came to 0.5995, the “Log2 Exp3_1hr” value is 0.1613 and the “Log2 Exp3_3hr” value is on record as -0.5854. For the same compound, the “Log2 Exp3_6hr” value is reported as 0.007182; the “Ratio of metabolite abundance, Exp1_1hr” value was determined as 1.681; the “Ratio of metabolite abundance, Exp1_3hr” value is given as 0.9152; the “Ratio of metabolite abundance, Exp1_6hr” value is 0.958. For the same compound, the “Ratio of metabolite abundance, Exp2_1hr” value was found to be 1.497; the “Ratio of metabolite abundance, Exp2_3hr” value amounted to 0.9825; the “Ratio of metabolite abundance, Exp2_6hr” value stood at 1.515; the “Ratio of metabolite abundance, Exp3_1hr” value turned out to be 1.118. The “Ratio of metabolite abundance, Exp3_3hr” value amounted to 0.6665 and the “Ratio of metabolite abundance, Exp3_6hr” value is listed as 1.005.

As to `CC(C)[C@H](NC(=O)[C@H](CC(N)=O)NC(=O)[C@@H](N)[C@@H](C)O)C(=O)N[C@@H](CCCCN)C(=O)O` [TNVK] (H-TNVK-OH), under “sheet Ratio, Exp1, 1hr”, the “Ratio of metabolite abundance, Exp1_1hr” value worked out at 0.4459. Also, the “Ratio of metabolite abundance, Exp1_3hr” value (sheet Ratio, Exp1, 3hr) is 0.2171. In addition, the “Ratio of metabolite abundance, Exp1_6hr” value (sheet Ratio, Exp1, 6hr) was determined as 0.7349. For the same compound, under “sheet Ratio, Exp2, 1hr”, the “Ratio of metabolite abundance, Exp2_1hr” value is recorded as 0.5855. The “Ratio of metabolite abundance, Exp2_3hr” value (sheet Ratio, Exp2, 3hr) was determined as 0.3584. The “Ratio of metabolite abundance, Exp2_6hr” value (sheet Ratio, Exp2, 6hr) amounted to 0.8812. The “Ratio of metabolite abundance, Exp3_1hr” value (sheet Ratio, Exp3, 1hr) came to 0.5059. Further, the “Ratio of metabolite abundance, Exp3_3hr” value (sheet Ratio, Exp3, 3hr) was 0.3409. Besides, for the setting “sheet Ratio, Exp3, 6hr”, the “Ratio of metabolite abundance, Exp3_6hr” value worked out at 1.2.

`CC(=O)N[C@H]1[C@@H](OP(=O)(O)OP(=O)(O)OC[C@H]2O[C@@H](n3ccc(=O)[nH]c3=O)[C@H](O)[C@@H]2O)O[C@H](CO)[C@@H](O)[C@@H]1O` [UDP-N-acetyl-D-glucosamine]: for the setting “sheet Ratio, Exp1, 1hr”, the “Ratio of metabolite abundance, Exp1_1hr” value turned out to be 1.076. Moreover, the “Ratio of metabolite abundance, Exp1_3hr” value (sheet Ratio, Exp1, 3hr) came to 0.9078. In addition, the “Ratio of metabolite abundance, Exp1_6hr” value (sheet Ratio, Exp1, 6hr) was 0.813. Also, the “Ratio of metabolite abundance, Exp2_1hr” value (sheet Ratio, Exp2, 1hr) is 0.9909. Besides, the “Ratio of metabolite abundance, Exp2_3hr” value (sheet Ratio, Exp2, 3hr) turned out to be 1.08. Further, under “sheet Ratio, Exp2, 6hr”, the “Ratio of metabolite abundance, Exp2_6hr” value is 0.8625. Under “sheet Ratio, Exp3, 1hr”, the “Ratio of metabolite abundance, Exp3_1hr” value amounted to 1.118. Moreover, the “Ratio of metabolite abundance, Exp3_3hr” value (sheet Ratio, Exp3, 3hr) is given as 1.138. Besides, the “Ratio of metabolite abundance, Exp3_6hr” value (sheet Ratio, Exp3, 6hr) was determined as 0.9727.

As to `O=c1ccn([C@@H]2O[C@H](COP(=O)(O)OP(=O)(O)O)[C@@H](O)[C@H]2O)c(=O)[nH]1` [UDP], under “sheet Ratio, Exp1, 1hr”, the “Ratio of metabolite abundance, Exp1_1hr” value turned out to be 0.7834. Under “sheet Ratio, Exp1, 3hr”, the “Ratio of metabolite abundance, Exp1_3hr” value was found to be 0.4305. The “Ratio of metabolite abundance, Exp1_6hr” value (sheet Ratio, Exp1, 6hr) stood at 0.5124. Further, under “sheet Ratio, Exp2, 1hr”, the “Ratio of metabolite abundance, Exp2_1hr” value worked out at 1.213. Moreover, the “Ratio of metabolite abundance, Exp2_3hr” value (sheet Ratio, Exp2, 3hr) is given as 0.7051. Further, where the note is “sheet Ratio, Exp2, 6hr”, the “Ratio of metabolite abundance, Exp2_6hr” value is on record as 0.7343. Besides, the “Ratio of metabolite abundance, Exp3_1hr” value (sheet Ratio, Exp3, 1hr) worked out at 0.7602. In addition, the “Ratio of metabolite abundance, Exp3_3hr” value (sheet Ratio, Exp3, 3hr) is on record as 0.7434. For the same compound, the “Ratio of metabolite abundance, Exp3_6hr” value (sheet Ratio, Exp3, 6hr) is given as 0.9366.
